The values below come from a melting point compilation (Tetko et al.; mined from patent text by program, amines drawn as free bases though some values may be those of a salt).

Structures are written as SMILES. Some results are limits rather than exact numbers.

The melting point is the temperature of the solid-liquid transition. Turning to `NS(=O)(=O)c1cc2c(cc1Cl)NC(C1CCCCC1)NS2(=O)=O` (configuration not stated), the melting point lay in the range of 274 to 276 °C. For `Cc1ccc2nc(-c3ccccc3)cc(OCc3ccccc3)c2c1` the value was 139 °C. For `O=C(c1cc(C(F)(F)F)ccc1Cl)c1cc(C(F)(F)F)ccc1Cl` the value was 70 to 72 °C; for `CCOC(=O)c1ccccc1NCc1c(-c2ccccc2)nn(C)c1Cl`, 123 °C. For `CCOC(=O)c1ccc(NCCCCCCCCCCCOc2ccccc2)cc1` the value was 83 to 87 °C; for `CCCCOc1c(CNC(=O)OCC2c3ccccc3-c3ccccc32)n(CC(C)C)c(=O)c2ccc(-c3nc(C)c(C(=O)OCC)s3)cc12`, 203 to 204 °C. The molecule `O=C(O)c1cc(=O)c2c(OCC(O)COc3ccc(Cl)cc3)cccc2o1` (configuration not stated) gave a melting point of 191 to 193 °C.

Molecule `O=C(C=Cc1c(-c2ccccc2)nn2ccccc12)N1CCCC[C@@H]1CCO` yielded a melting point of 145 to 146 °C. For `COc1ccc(C=CC(=O)CCCCc2ccccc2)cc1O` the value was 70 to 75 °C. With `Cc1c(N)ccc2c1C(=O)NS2(=O)=O`, the melting point was in the range of 272 to 273 °C. For `c1ccc2c(CCCc3nccc4ccccc34)nccc2c1` the value was 96 to 97 °C; for `Oc1c(F)ccc(-c2c3ccccc3c(Br)c3sc4ccccc4c23)c1F`, 180 to 182 °C. The figure for `CNC(=O)c1ccccc1Nc1nc(Nc2ccc3c(c2)COC[C@@H]2CCCN32)ncc1Cl` is 216 to 218 °C; for `COc1ccc(S(=O)(=O)N2c3cc(F)ccc3-c3ccc(F)cc3C2C)cc1` (configuration not stated) it is 141 to 143 °C. For `NC(=O)N(O)Cc1cc(Br)cs1` the value was 162 to 164 °C; for `Cc1ccc(Oc2ccc(-n3cccc3)cc2)c(O)c1`, 95 to 96 °C. For `CCOP(=O)(CS(=O)(=O)Oc1ccccc1)OCC`, the melting point lay in the range of 50.5 to 51.5 °C. For `COc1ccc(C2=NN(CCCCN)C(=O)[C@H]3CC=CC[C@@H]23)cc1OC` (relative stereo) the value was 108 to 109 °C. For `COC(=O)CCn1c(=O)n(CCN2CCN(c3ccccc3)CC2)c(=O)c2cscc21` the value was 133 to 134 °C. Molecule `O=S1(=O)N=CN(C2CC2)c2c1ccc(F)c2Cl` yielded a melting point of 147 to 148 °C. For `COc1ccc(-c2nccc(N3CCN(c4c(C)c(C)c5c(c4C)CC(C)(C)O5)CC3)n2)cc1` the value was 240 to 242 °C; for `COC(=O)c1ccc(COc2ccc3cc(-c4ccc(-c5ccccc5)n4Cc4ccc(C(F)(F)F)cc4)ccc3c2)cc1`, 154 to 155 °C. For `Nc1nc(-c2cc(Cl)ccc2Cl)nc(N(CCO)CCO)n1` the value was 199 to 200 °C; for `O=C1CCc2ncc3cc(Cl)c(Cl)cc3c2N1`, 350 °C. The figure for `CN1CCN(c2ccc(Nc3ncc4ccc(-c5ccc(S(C)(=O)=O)cc5)n4n3)cc2)CC1` is 234 to 238 °C; for `Cc1cc(C(=O)Nc2cc(Oc3ccc4nc(NC(=O)C5CC5)cn4n3)ccc2Cl)n(C)n1` it is 255 °C; for `COc1cc(C(C)=NNC(=N)NCc2ccccc2)cc(OC)c1OC` it is 107 to 109 °C. In turn, `O=C(CSc1ccncc1)Nc1cccc(-c2ccnc3c(C(=O)c4cccs4)cnn23)c1` returned a melting point of 138 to 144 °C. The figure for `COC(=O)COc1ccc(C(=O)c2cccs2)c2c1CCCC2` is 85 °C; for `Nc1ccc(Cl)cc1C(=O)c1c(F)cccc1F` it is 103 to 105 °C; for `CCOC(=O)C=Cc1ccn(S(=O)(=O)c2ccc3nc[nH]c(=O)c3c2)c1` it is 207 to 210 °C. The figure for `COc1cc2ncc(C#N)c(Nc3ccc(F)c(Cl)c3)c2cc1NC(=O)C=CCN1CCC(O)C1` (configuration not stated) is 215 to 220 °C; for `CCCCC(NC(=O)C(CS)C(C)c1ccccc1)C(=O)O` (configuration not stated) it is 55 °C; for `c1cn(CCc2ccc3c(c2)Cc2c(-c4ccsc4)n[nH]c2-3)cn1` it is 160 to 165 °C. The figure for `COc1ccc(CCc2cc3cc(C#N)ccc3o2)c(C(=O)O)c1` is 179 to 182 °C.

With `CN(C)NC(=O)C(C)(C)C`, the melting point was in the range of 120 to 122 °C. The figure for `O=C1CCOc2ccc(-c3ccccc3)cc21` is 74 to 75 °C; for `CCOc1cc2cc(CO)cc(-c3ccnc(-n4nc(C)c5ccccc5c4=O)c3)c2cc1OCC` it is 220 to 221 °C; for `N#Cc1ccc(OCc2ccccc2)cc1OCc1ccccc1` it is 100 °C.

The molecule `O=C1c2cccc(O)c2CN1C1CCN(CCC(c2ccccc2)c2ccccc2)CC1` gave a melting point of 114 to 118 °C. `Cc1oc2c(C)c(C)c(NC(=O)CC(C)(C)C)c(C)c2c1-c1ccc(C(C)C)cc1` showed a melting point of 253 to 254 °C. For `COc1ccc(C(=O)c2nccs2)cc1OCc1ccc2ccccc2c1` the value was 80 °C; for `COCc1c(NC2CC2)c([N+](=O)[O-])cc(F)c1N1CCN(C)CC1`, 89 to 90 °C; for `Cc1ccc(S(=O)(=O)NC(=O)c2cc(Oc3ccc(C(F)(F)F)cc3Cl)ccc2[N+](=O)[O-])cc1`, 150 °C. For `O=C(Oc1ccccc1)c1cc(O)c(O)c(O)c1` the value was 190 to 191 °C; for `CCC(C)(C)c1ccc(OCCCCNC(=O)c2[nH]c3ccc(OC)cc3c2N)c(C(C)(C)CC)c1`, 145 to 146 °C; for `COC(CCOc1cc(C)ccc1C)C(C)(C)C(=O)O` (configuration not stated), 76 to 77 °C. The figure for `COC(=O)Nc1nc(C)c(-c2nc3ccccc3c(=O)n2-c2ccc(Cl)cc2)s1` is > 275 °C.

Take `CCCCCN1CCN(c2cccc3c2C[C@H](NC(C)=O)CC3)CC1`: the melting point was in the range of 119 to 120 °C.

Regarding `Cn1nc(C(F)(F)F)cc1Oc1cccc(Cl)n1`, the melting point lay in the range of 56 to 58 °C.

Consider `CC(=O)NC12CC1CN(c1nc3c(cc1F)c(=O)c(C(=O)O)cn3C1CC1)C2` (configuration not stated), for which the melting point was 275 °C.

The molecule `O=C(c1ccc2c(c1)[C@@H](O)[C@H](Br)CCO2)c1ccccc1F` (relative stereo) returned a melting point of 219 to 221 °C.

`COc1cc(C(C)=O)cc(OC)c1OCCCN1CCC(c2noc3cc(F)ccc23)CC1`: the melting point was in the range of 107 to 108 °C. For `O=C(Cc1ccccc1Cl)Nc1ccc(C(=O)N2Cc3ccccc3Cc3ccccc32)cc1` the value was 191 to 194 °C; for `O=C(Nc1ccc(-n2nc(C(F)(F)F)cc2C(F)(F)F)cc1)c1cc(Cl)cnc1Cl`, 228 to 229 °C; for `CC(C(=O)O)c1cc(F)c([N+](=O)[O-])cc1[N+](=O)[O-]` (configuration not stated), 141 to 142 °C. The figure for `CCOC(=O)c1ccc2[nH]ccc2c1` is 94 to 95 °C. Turning to `O=C(Nc1cccc(CN2C(=O)[C@H]3CCC[C@H]3N(C(=O)CN3C(=O)c4ccccc4C3=O)c3ccccc32)c1)OCc1ccccc1` (relative stereo), the melting point lay within 224 to 225 °C.

`Cc1ccc(-c2c3c(cc4ccc(O)cc24)-c2ccc(O)cc2CO3)cc1`: the melting point fell in the range of 238 to 240 °C. For `CCOC(=O)N(c1ccc(Cl)cc1N)c1ccc(Cl)cc1Cl` the value was 137 to 139 °C. For `CCCCCCCCCCCCCCC(=O)Oc1ccc2cc(C(=N)N)ccc2c1`, the melting point is 153 °C. `O=C(O)c1cn(C2CC2)c2c(F)c(F)c(F)c(F)c2c1=O`: the melting point lay within 179 to 180 °C. The figure for `Cn1nc(-c2ccncc2)n(C)c1=S` is 150 to 152 °C; for `O=C(O)CCCC1Cc2ccc(F)cc2C1=O` (configuration not stated) it is 106 to 107 °C; for `O=C1c2ccccc2C(=O)c2c(O)c3c(c(O)c21)CCCC3` it is 194 to 196 °C. For `O=[N+]([O-])c1cc(Br)ccc1-c1ccc(F)cc1F` the value was 52 to 53 °C. `O=C1C(=C2C=Cc3ccccc3C2)CCCC1=C1C=Cc2ccccc2C1` yielded a melting point of 176 °C. Turning to `O=C1C2CCCN2S(=O)(=O)N1CSc1ccccc1` (configuration not stated), the melting point was in the range of 90.5 to 91.5 °C. The figure for `O=S(=O)(c1ccc(F)cc1)c1c[nH]c2ccc(Br)cc12` is 163 to 164 °C; for `CCOc1ccc2c(c1)C(Cl)(c1ccccc1Cl)C(=O)N2` (configuration not stated) it is 128 to 132 °C; for `O=Cc1ccc(-c2ncn(-c3ccc(OC(F)(F)F)cc3)n2)cc1` it is 137 to 140 °C. The figure for `CCn1c(=O)c2[nH]c(/C=C/c3ccc(F)c(F)c3)nc2n(CC)c1=O` is > 300 °C; for `COc1ccc(NC(=O)c2ccc(OC)c(NC(=S)Nc3cc(Cl)cc(Cl)c3)c2)cc1` it is 175 to 182 °C; for `CNC1=NS(=O)N=C1NCCSCc1ccc(CN(C)C)o1` (configuration not stated) it is 86 to 92 °C.

Take `CCN(CC)c1ccc(Nc2ccnc(Nc3cc(OC)c(OC)c(OC)c3)n2)cc1`: the melting point was 87 °C. The figure for `CCCCCCCCCCCCCCCC(=O)OC[C@H](O)COC(C)=O` is 37 to 37.5 °C; for `CN(c1cccc2cc(C3=NCC(C(C)(C)O)S3)[nH]c12)S(=O)(=O)c1cccs1` (configuration not stated) it is 174 to 175 °C; for `COC(=O)Cc1ccc(Oc2ccc(C#N)cc2)cc1` it is 58 to 60 °C.

As to `CC(C)(Oc1ccc(C(=O)CN2CCN(c3ccncc3)CC2)cc1)C(=O)O`, the melting point was 163 to 167 °C.

Molecule `COc1ccc(C(C)C)c(NC(=O)CN2CCN(CCCSc3nc4ccccc4o3)CC2)c1C(C)C` showed a melting point of 105 to 107 °C.

`NC(=O)c1c(-c2cnccn2)ssc1=S`: the melting point was 267 °C. For `CC(C)(C)c1cc(C(=O)c2cccs2)cc(CN2CCCCC2)c1O` the value was 132 to 133 °C; for `CCCc1c(OCCCCC(=O)O)ccc(C(C)=O)c1O`, 97 to 102 °C.

`NCCCNc1cccc2[nH]ncc12` displayed a melting point of 154 to 163 °C.

The molecule `CC(C)(C)OC(=O)NC1CCN(Cc2ccccc2)CC1` registered a melting point of 112 to 120 °C. For `O=C(CCCCCl)c1cccc2cc3c(C(=O)CCCCCl)cccc3cc12` the value was 146 to 148 °C; for `Cc1nc(C(C)c2ccccc2)c2c(c1O)COC2` (configuration not stated), 163 °C.
